We go through 39 compounds from patent US20240408064A1, “RAS INHIBITORS, COMPOSITIONS AND METHODS OF USE THEREOF” (GENETOLEAD INC., priority 2021, published 2024).

Where “and” joins values, the source holds several entries; their conditions need not be identical. Equal values may be shown once.

Assay [1] concerns the target T1, HRas^G12V (Homo sapiens (Human), UniProt P01112, G12V). In words: 19F DLB (ligand-observed 19F NMR) score. The class given is binding. Details: scale not given here. How it is done:
(§1) All NMR experiments were collected using 3 mm NMR tubes on a 600 MHz Bruker Avance III spectrometer equipped with a QCI helium cryoprobe and a SampleJet sample changer. The buffer used for NMR experiments was 25 mM sodium phosphate pH 7.4, 150 mM NaCl, 5 mM MgCl2, 1 mM TCEP-d16, 10% D2O. Data were processed using Bruker TopSpin.
(§2) Since the fragment library was curated using phosphate buffer, 25 mM sodium phosphate pH 7.4, 150 mM NaCl, 5 mM MgCl2, 1 mM TCEP-d16, 10% D2O Fresh TCEP was used for experiments. Screening was performed using ^1H-decoupled 1D ^19F experiment Bruker experiment (zgfhigqn.2) with 64 scans and a relaxation delay of 5 seconds. 50 μM HRas^G12V and 240 μM of each fragment in pools (mixtures) were used.
Hit confirmation was performed using the same ^19F experiment as the screen. Ligand-observed 1D ^1H, protein-observed 1D ^1H, ^1H T2-CPMG as well as Saturation Transfer Difference (STD) experiments were also run on the same samples. Ligand-observed 1D ^1H was run using the standard Bruker sequence with excitation sculpting (zgesgp) with a relaxation delay of 10 seconds and 16 scans per spectrum. Protein-observed 1D ^1H was performed using the same sequence with a relaxation delay of 1 second and 256 scans in order to increase the signal-to-noise of the protein resonances, while keeping the experimental time relatively short. The ^1H T2-CPMG experiment employed a modified version of the Bruker 1D ^1H zgesgp experiment with the addition of a CPMG pulse train after the first 90° excitation pulse. Total duration for each spin echo was fixed at 1 ms (τ=500 μs), while the number of echoes in the pulse train was varied according to the total time (T). The number of scans for each spectrum was 4 and eight delay times were run on each sample, ranging from 1 ms to 800 ms. […]

The target in assay [2] is T1, HRas^G12V. The experiment in a line: 19F T2-CPMG NMR score. The class given is binding. How it is done: as §1, §2
Hit confirmation was performed using the same ^19F experiment as the screen. Ligand-observed 1D ^1H, protein-observed 1D ^1H, ^1H T2-CPMG as well as Saturation Transfer Difference (STD) experiments were also run on the same samples. Ligand-observed 1D ^1H was run using the standard Bruker sequence with excitation sculpting (zgesgp) with a relaxation delay of 10 seconds and 16 scans per spectrum. Protein-observed 1D ^1H was performed using the same sequence with a relaxation delay of 1 second and 256 scans in order to increase the signal-to-noise of the protein resonances, while keeping the experimental time relatively short. The ^1H T2-CPMG experiment employed a modified version of the Bruker 1D ^1H zgesgp experiment with the addition of a CPMG pulse train after the first 90° excitation pulse. Total duration for each spin echo was fixed at 1 ms (τ=500 μs), while the number of echoes in the pulse train was varied according to the total time (T). The number of scans for each spectrum was 4 and eight delay times were run on each sample, ranging from 1 ms to 800 ms.
Because of its power to probe the intrinsically weak interactions (Kd) between targets and low-molecular weight fragments, NMR fragment-based lead discovery (FBLD) is a very useful biophysical method in early stage drug discovery, especially for challenging target proteins; including those with shallow binding pockets. Since FBLD screens are performed using low-molecular weight compounds (fragments) with lower structural complexity, the same chemical space can be covered using a smaller number of drug-like fragments versus use of large libraries of higher-molecular weight lead-like compounds as in high throughput screening (HTS) campaigns. Therefore, FBLD has a much higher hit rate than HTS using only several hundred to several thousand compounds in comparison with approximately 1 million compounds for HTS. Also, the small size of the compounds screened in FBLD means a better chance to fully match the interactions with small or transient pockets within the target protein, where these less tractable pockets cannot be accessed with standard classical HTS methods. […] We expect this methodology to be more advantageous than classical HTS methods for expediting the time from hit to lead (H2L) and allows for rapid access to high quality leads with lower attrition rates in subsequent lead optimization (LO) campaigns toward pre-clinical candidate selection. FBLD screening by NMR involves a “consensus binding” approach where several distinct NMR experiments (DLB, STD, CPMG) are applied along with a free-state aggregation detection method (T2-CPMG) to rank the compounds for their affinity to the receptor (HRAS in this case) whilst simultaneously monitoring the solution behavior and critical quality attributes of each compound. The latter helps to eliminate artifact binders which are highly problematic. We performed a fluorine screen involving 461 compounds that were derived from a highly curated fragment library. Moreover, two-dimensional ^15N HSQC NMR was also used to validate ligand-binding sites on the target protein. […]

T1 sequence (P01112 1-166 G12V): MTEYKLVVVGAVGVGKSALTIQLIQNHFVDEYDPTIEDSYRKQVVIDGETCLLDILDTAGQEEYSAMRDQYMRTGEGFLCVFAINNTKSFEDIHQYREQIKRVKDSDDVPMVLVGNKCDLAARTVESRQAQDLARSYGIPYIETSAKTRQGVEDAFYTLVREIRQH

As for `O=C1C[C@H](c2c[nH]c3cc(F)ccc23)C(=O)N1` (single isomer, unassigned) [Compound 11039], the “19F DLB Score” value at HRas^G12V [1] is 3.59. Besides, the “19F T2-CPMG Score” value at HRas^G12V [2] is reported as 39.34.
Regarding `O=C1C[C@@H](c2c[nH]c3cc(F)ccc23)C(=O)N1` (single isomer, unassigned) [Compound 11040], the “19F DLB Score” value on HRas^G12V [1] turned out to be 3.49.
Regarding `O=C(NCCc1c[nH]c2cc(F)ccc12)[C@H]1CCCO1` [Compound 10013], the “19F DLB Score” value at HRas^G12V [1] is on record as 2.09. At HRas^G12V [2], the “19F T2-CPMG Score” value was determined as 12.62.
As to `O=C(Cc1c[nH]c2cc(F)ccc12)N1CCOCC1` [Compound 10016], at HRas^G12V [1], the “19F DLB Score” value is 4.63 and 2.64.
As for `CN1CCN(CCNC(=O)Cc2c[nH]c3cc(F)ccc23)CC1` [Compound 10020], the “19F DLB Score” value on HRas^G12V [1] is 1.62. Besides, the “19F T2-CPMG Score” value at HRas^G12V [2] is on record as 14.34.
For `COc1cccc(NC(=O)Cc2c[nH]c3cc(F)ccc23)c1` [Compound 10030], the “19F DLB Score” value on HRas^G12V [1] turned out to be 3.05. Besides, the “19F T2-CPMG Score” value at HRas^G12V [2] stood at 18.47.
The matching figures for `O=C(NCCc1c[nH]c2cc(F)ccc12)c1ccc(F)cc1` [Compound 10039]: 0.96 and 20.33.
`O=C(Cc1c[nH]c2cc(F)ccc12)Nc1ccc2[nH]ccc2c1` [Compound 10042]: the “19F DLB Score” value at HRas^G12V [1] turned out to be 2.72. The “19F T2-CPMG Score” value on HRas^G12V [2] is 37.91.
The matching figures for `Fc1ccc2c(CNc3ccccc3)c[nH]c2c1` [Compound 10052, N-((6-fluoro-1H-indol-3-yl)methyl) aniline]: 4.75 and 25.51.
The matching figures for `O=C(Cc1c[nH]c2cc(F)ccc12)Nc1cccnc1` [Compound 10058]: 3.07 and 21.6.
The matching figures for `O=C(Cc1c[nH]c2cc(F)ccc12)Nc1ccc2c(c1)OCO2` [Compound 10059]: 3.22 and 18.99.
Turning to `CN1CCN(C(=O)Cc2c[nH]c3cc(F)ccc23)CC1` [Compound 10065], at HRas^G12V [1], the “19F DLB Score” value came out at 2.88. In addition, the “19F T2-CPMG Score” value at HRas^G12V [2] came out at 22.6.
The matching figures for `CC(C)N1CCN(C(=O)Cc2c[nH]c3cc(F)ccc23)CC1` [Compound 10068]: 2.43 and 10.72.
The matching figures for `O=C(Cc1c[nH]c2cc(F)ccc12)N1CC2(COC2)C1` [Compound 10069]: 2.54 and 21.31.
The matching figures for `COCC1CN(C(=O)Cc2c[nH]c3cc(F)ccc23)C1` [Compound 10075]: 1.77 and 7.09.
As to `O=C(Cc1c[nH]c2cc(F)ccc12)Nc1ncccn1` [Compound 10078, 2-(6-fluoro-1H-indol-3-yl)-N-(pyrimidin-2-yl) acetamide], the “19F DLB Score” value on HRas^G12V [1] was determined as 2.07. Further, the “19F T2-CPMG Score” value on HRas^G12V [2] stood at 11.04.
The matching figures for `COC1CN(C(=O)Cc2c[nH]c3cc(F)ccc23)C1` [Compound 10081]: 2.15 and 15.91.
In the case of `O=C(CN1CCC1)c1c[nH]c2cc(F)ccc12` [Compound 10085, 2-(azetidin-1-yl)-1-(6-fluoro-1H-indol-3-yl) ethan-1-one], the “19F DLB Score” value at HRas^G12V [1] came out at 2.43. In addition, on HRas^G12V [2], the “19F T2-CPMG Score” value worked out at 21.45.
The matching figures for `COC(=O)C1CN(C(=O)Cc2c[nH]c3cc(F)ccc23)C1` [Compound 10087, methyl 1-(2-(6-fluoro-1H-indol-3-yl)acetyl) azetidine-3-carboxylate]: 2.16 and 13.65.
The matching figures for `COC(=O)C1CCN1C(=O)Cc1c[nH]c2cc(F)ccc12` (centres unmarked) [Compound 10088, Methyl 1-(2-(6-fluoro-1H-indol-3-yl)acetyl)azetidine-2-carboxylate]: 2.24 and 11.14.
The matching figures for `COCC1(O)CN(C(=O)Cc2c[nH]c3cc(F)ccc23)C1` [Compound 10089, 2-(6-fluoro-1H-indol-3-yl)-1-(3-hydroxy-3-(methoxymethyl)azetidin-1-yl)ethan-1-one]: 1.89 and 9.84.
In the case of `CC(=O)N[C@@H]1CCN(C(=O)Cc2c[nH]c3cc(F)ccc23)C1` [Compound 10091], on HRas^G12V [1], the “19F DLB Score” value is given as 1.93. For the same compound, the “19F T2-CPMG Score” value at HRas^G12V [2] is on record as 7.83.
With `CC1CN(C)CCC1NC(=O)Cc1c[nH]c2cc(F)ccc12` (centres unmarked) [Compound 10099, N-(1,3-dimethylpiperidin-4-yl)-2-(6-fluoro-1H-indol-3-yl)acetamide], the “19F DLB Score” value on HRas^G12V [1] worked out at 1.4. Further, at HRas^G12V [2], the “19F T2-CPMG Score” value came to 11.85.
The matching figures for `CC(c1ccncc1)N(C)C(=O)Cc1c[nH]c2cc(F)ccc12` (centres unmarked) [Compound 10100, 2-(6-fluoro-1H-indol-3-yl)-N-methyl-N-(1-(pyridin-4-yl)ethyl)acetamide]: 1.73 and 9.66.
Turning to `COCCOC1CN(C(=O)Cc2c[nH]c3cc(F)ccc23)C1` [Compound 10103, 2-(6-fluoro-1H-indol-3-yl)-1-(3-(2-methoxyethoxy)azetidin-1-yl) ethan-1-one], the “19F DLB Score” value at HRas^G12V [1] amounted to 1.62. Also, the “19F T2-CPMG Score” value on HRas^G12V [2] is 7.82.
Consider `CC1CN(C(=O)C(C#N)c2c[nH]c3cc(F)ccc23)C1` (centres unmarked) [Compound 11033], for which the “19F DLB Score” value on HRas^G12V [1] is 6.06.
The same measure, in the same setting: then `CC(=O)Nc1cccc(NC(=O)C(C#N)c2c[nH]c3cc(F)ccc23)c1` (centres unmarked) [Compound 11035], with 5.34.
With `O=C(C1CCNCC1)N1CCC(c2c[nH]c3cc(F)ccc23)C1` (centres unmarked) [Compound 11038], the “19F DLB Score” value at HRas^G12V [1] was 2.37.
Still for that read-out and setting: then `O=C(C1CCNC1)N1CCC(c2c[nH]c3cc(F)ccc23)CC1` (centres unmarked) [Compound 11046], with 3.58; and `O=C(C1CCCNC1)N1CCC(c2c[nH]c3cc(F)ccc23)CC1` (centres unmarked) [Compound 11048], with 3.29.
Still for that read-out and setting: under `CN(C)Cc1cc2ccc(F)cc2[nH]1` [Compound 11049] stands “Non conclusive”; under `O=C(O)CCc1c[nH]c2cc(F)ccc12` [Compound 11050], “Non conclusive”; under `O=C(O)CC(c1ccc(F)cc1F)c1c[nH]c2cc(F)ccc12` (centres unmarked) [Compound 11056], “Non conclusive”.
On the same count and under the same terms, under `COc1ccc(C(CC(=O)O)c2c[nH]c3cc(F)ccc23)cc1` (centres unmarked) [Compound 11057] stands “Non conclusive”.
On to `O=C(O)CC(c1cccc(F)c1)c1c[nH]c2cc(F)ccc12` (centres unmarked) [Compound 11059], for which, on HRas^G12V [1], the “19F DLB Score” value is reported as “Non conclusive”.
As for `O=C(O)C(NCc1ccccc1)c1c[nH]c2cc(F)ccc12` (centres unmarked) [Compound 11060], the “19F DLB Score” value at HRas^G12V [1] is on record as “Non conclusive”.
Still for that read-out and setting: then `O=C(O)C(NCc1cncc(Br)c1)c1c[nH]c2cc(F)ccc12` (centres unmarked) [Compound 11061], with “Non conclusive”; and `O=C(O)C(c1c[nH]c2cc(F)ccc12)N1CCC(O)CC1` (centres unmarked) [Compound 11062], with “Non conclusive”.
On the same count and under the same terms, under `O=C(O)C(NCc1ccc(O)cc1)c1c[nH]c2cc(F)ccc12` (centres unmarked) [Compound 11063] stands “Non conclusive”.
